We go through 62 compounds from patent publication US9296748B2, “Pyridinones” (Boehringer Ingelheim International GmbH, priority 2013, dated 2016).

This assay has as its target BRD4-BD1 (Homo sapiens (Human), UniProt O60885). As to the kind of experiment: BRD4-H4 Tetraacetylated Peptide Inhibition AlphaScreen. The format is binding. The note with it: GST-BRD4-BD1 (aa 44-168), biotinylated Acetyl-Histone H4 peptide. How it is done: Compounds are diluted in serial dilution 1:5 in assay buffer from 10 mM stock in DMSO (100 μM start concentration) in white OptiPlate-384 (PerkinElmer). […] Subsequently, 6 μl of premixed AlphaLISA Glutathione Acceptor Beads and AlphaScreen Streptavidin Donor Beads from PerkinElmer (in assay buffer at a concentration of 10 μg/ml each) are added and the samples are incubated for 30 min at RT in the dark (shaking 300 rpm). Afterwards, the signal is measured in a PerkinElmer Envision HTS Multilabel Reader using the AlphaScreen protocol from PerkinElmer. […] Negative control values are entered as low basis value when using the software GraphPad Prism for calculations. Furthermore, a positive control (probe molecule JQ1+ with protein/peptide mix) is pipetted. Determination of IC50 values are carried out using GraphPad Prism 3.03 software (or updates thereof).
The compound `Cc1cc(-c2nc3cnc(OCC4CC4)cc3n2C(C)c2ccccn2)cn(C)c1=O` (racemic) [II-21, 5-[6-Cyclopropylmethoxy-1-(1-pyridin-2-yl-ethyl)-1H-imidazo[4,5-c]pyridin-2-yl]-1,3-dimethyl-1H-pyridin-2-one] gave an IC50 of 0.042 µM.

In the case of `Cc1cc(-c2nc3ccc(N4CCN(C)CC4)cc3n2Cc2ccccc2)cn(C)c1=O` [Example I-1, 5-[1-Benzyl-6-(4-methylpiperazin-1-yl)-1H-1,3-benzodiazol-2-yl]-1,3-dimethyl-1,2-dihydropyridin-2-one], 0.012 µM corresponded to half-maximal inhibition (IC50).

With `Cn1cc(-c2nc3ccccc3n2Cc2ccccc2)ccc1=O` [Example I-2], inhibition was half-maximal at 1.54 µM (IC50).

Take `Cc1cc(-c2nc3ccc(N4CCOCC4)cc3n2Cc2ccccc2)c[nH]c1=O` [Example I-3]: half-maximal inhibition (IC50) required 0.109 µM.

Turning to `Cn1cc(-c2nc3ccc(N4CCOCC4)cc3n2Cc2ccccc2)ccc1=O` [Example I-4], the midpoint of inhibition, the IC50, lay at 0.515 µM.

With `CN1CCN(c2ccc3nc(-c4ccc(=O)n(C)c4)n(Cc4ccccc4)c3c2)CC1` [Example I-5], the IC50 was determined as 0.547 µM.

In turn, `Cc1cc(-c2nc3ccc(N4CCOCC4)cc3n2Cc2ccccc2)cn(C)c1=O` [Example I-6] returned an IC50 of 0.019 µM.

Compound `Cc1cc(-c2nc3ccc(N4CCN(C)CC4)cc3n2Cc2ccccc2)c[nH]c1=O` [Example I-7] registered an IC50 of 0.095 µM.

As to `Cc1cc(-c2nc3ccccc3n2Cc2ccccc2)c[nH]c1=O` [Example I-8], the IC50 was found to be 0.609 µM.

For the compound `Cc1cc(-c2nc3ccc(N)cc3n2Cc2ccccc2)cn(C)c1=O` [Example I-9, 5-(6-Amino-1-benzyl-1H-benzoimidazol-2-yl)-1,3-dimethyl-1H-pyridin-2-one], the midpoint of inhibition, the IC50, lay at 0.058 µM.

The compound `CCn1cc(-c2nc3ccc(N4CCN(C)CC4)cc3n2Cc2ccccc2)cc(C)c1=O` [Example I-10] had an IC50 of 0.049 µM.

As to `Cc1cc(-c2nc3ccc(N4CCN(C)CC4)cc3n2Cc2ccccc2)nn(C)c1=O` [Example I-11], the half-maximal inhibitory concentration (IC50) is 0.012 µM.

In the case of `Cc1cc(-c2nc3ccc(F)cc3n2Cc2ccccc2)cn(C)c1=O` [Example I-12, 5-(1-Benzyl-6-fluoro-1H-benzoimidazol-2-yl)-1,3-dimethyl-1H-pyridin-2-one], the IC50 came out at 0.018 µM.

In turn, `Cc1cc(-c2nc3ccccc3n2Cc2ccccc2)cn(C)c1=O` [Example I-13] gave an IC50 of 0.068 µM.

`Cc1nc(-c2nc3ccc(N4CCN(C)CC4)cc3n2Cc2ccccc2)cn(C)c1=O` [Example I-14] displayed an IC50 of 0.036 µM.

In the case of `Cn1nc(-c2nc3ccccc3n2Cc2ccccc2)ccc1=O` [Example I-15], the IC50 worked out at 1.39 µM.

Take `CN1CCN(c2ccc3nc(-c4ccc(=O)n(C)n4)n(Cc4ccccc4)c3c2)CC1` [Example I-16]: 0.192 µM corresponded to half-maximal inhibition (IC50).

In turn, `Cn1cc(-c2nc3ccccc3n2Cc2ccccc2)ncc1=O` [Example I-18] had an IC50 of 1.11 µM.

For the compound `Cn1cc(-c2nc3ccc(N4CCOCC4)cc3n2Cc2ccccc2)ncc1=O` [Example I-19], the IC50 was 0.298 µM.

In turn, `CN1CCN(c2ccc3nc(-c4cn(C)c(=O)cn4)n(Cc4ccccc4)c3c2)CC1` [Example I-20] showed an IC50 of 0.121 µM.

For `Cc1nc(-c2nc3ccccc3n2Cc2ccccc2)cn(C)c1=O` [Example I-21], the IC50 was 0.201 µM.

The compound `COc1ccc2nc(-c3cc(C)c(=O)n(C)c3)n(Cc3ccccc3)c2c1` [Example I-22] displayed an IC50 of 0.044 µM.

For the compound `Cc1cc(-c2nc3ccc(C#N)cc3n2Cc2ccccc2)cn(C)c1=O` [Example I-23], the concentration for half-maximal inhibition (IC50) amounted to 0.19 µM.

Compound `Cc1cc(-c2nc3ccc(C(=O)N(C)C)cc3n2Cc2ccccc2)cn(C)c1=O` [Example I-24] displayed an IC50 of 0.128 µM.

`Cc1cc(-c2nc3ccc(C4CCOCC4)cc3n2Cc2ccccn2)cn(C)c1=O` [Example I-25] yielded an IC50 of 0.072 µM.

In turn, `COC[C@H](C)n1c(-c2cc(C)c(=O)n(C)c2)nc2ccc(C3CCOCC3)cc21` [Example I-26] had an IC50 of 0.096 µM.

Take `Cc1cc(-c2nc3ccc(C4CCOCC4)cc3n2[C@@H](C)c2ccccn2)cn(C)c1=O` [Example I-27]: the IC50 was found to be 0.103 µM.

The compound `COC[C@H](C)n1c(-c2cc(C)c(=O)n(C)c2)nc2ccc(C(C)C)cc21` [Example I-28] displayed an IC50 of 0.174 µM.

Consider `Cc1cc(-c2nc3ccc(C(C)C)cc3n2[C@@H](C)c2ccccn2)cn(C)c1=O` [Example I-29], for which the 50% inhibitory concentration (IC50) stood at 0.18 µM.

For the compound `Cc1cc(-c2nc3ccc(C4(C(F)(F)F)CC4)cc3n2Cc2ccccn2)cn(C)c1=O` [Example I-30], the concentration for half-maximal inhibition (IC50) amounted to 0.063 µM.

`COC[C@H](C)n1c(-c2cc(C)c(=O)n(C)c2)nc2ccc(N3CCOC[C@@H]3C)cc21` [Example I-31] yielded an IC50 of 0.075 µM.

For the compound `COC[C@H](C)n1c(-c2cc(C)c(=O)n(C)c2)nc2ccc(N)cc21` [Example I-32], the IC50 worked out at 0.268 µM.

Regarding `Cc1cc(-c2nc3ccc(C4CN(C)CCO4)cc3n2[C@@H](C)c2ccccc2)nn(C)c1=O` (some centres unmarked) [Example I-33], the midpoint of inhibition, the IC50, lay at 0.047 µM.

Turning to `Cc1cc(-c2nc3ccc(C4CN(C)CCO4)cc3n2[C@@H](C)c2ccccc2)cn(C)c1=O` (some centres unmarked) [Example I-34], the IC50 was found to be 0.049 µM.

In turn, `Cc1cc(-c2nc3ccc(C4CCN(C)C(=O)C4)cc3n2[C@@H](C)c2ccccc2)cn(C)c1=O` (some centres unmarked) [Example I-35] displayed a half-inhibitory concentration (IC50) of 0.023 µM.

On to `COC[C@H](C)n1c(-c2cc(C)c(=O)n(C)n2)nc2ccc(N3CCOC[C@@H]3C)cc21` [Example I-36], for which half-maximal inhibition (IC50) required 0.065 µM.

In the case of `Cc1cc(-c2nc3ccc(C4(C(F)(F)F)CC4)cc3n2[C@@H](C)c2ccccc2)cn(C)c1=O` [Example I-37], half-maximal inhibition (IC50) was put at 0.103 µM.

In turn, `Cc1cc(-c2nc3ccc(C4CCN(C)C(=O)C4)cc3n2[C@@H](C)c2ccccc2)nn(C)c1=O` (some centres unmarked) [Example I-38] registered an IC50 of 0.032 µM.

In the case of `CC1CC(=O)NN=C1c1ccc2c(c1)nc(-c1cc(N)c(=O)n(C)c1)n2Cc1ccccc1` (centres unmarked) [Example V-1, 6-[2-(5-Amino-1-methyl-6-oxo-1,6-dihydro-pyridin-3-yl)-1-benzyl-1H-benzoimidazol-5-yl]-5-methyl-4,5-dihydro-2H-pyridazin-3-one], inhibition was half-maximal at 0.145 µM (IC50).

Compound `Cn1cc(-c2nc3ccccc3n2Cc2ccccc2)cc(N)c1=O` [Example V-2, 3-amino-5-(1-benzyl-1H-benzoimidazol-2-yl)-1-methyl-1H-pyridin-2-one] registered an IC50 of 1.35 µM.

Regarding `CN1CCN(c2ccc3nc(-c4cc(N)c(=O)n(C)c4)n(Cc4ccccc4)c3c2)CC1` [Example V-3], the midpoint of inhibition, the IC50, lay at 0.073 µM.

`Cn1cc(-c2nc3ccc(N4CCOCC4)cc3n2Cc2ccccc2)cc(N)c1=O` [Example V-4] showed an IC50 of 0.133 µM.

On to `Cc1cc(-c2nc3cnc(N4CCN(C)CC4)cc3n2Cc2ccccc2)cn(C)c1=O` [II-1], for which 0.019 µM corresponded to half-maximal inhibition (IC50).

For the compound `Cc1cc(-c2nc3cnc(N4CCOCC4)cc3n2Cc2ccccn2)cn(C)c1=O` [II-2], half-maximal inhibition (IC50) was put at 0.054 µM.

Compound `Cc1cc(-c2nc3cnc(N4CCOCC4)cc3n2Cc2ccccc2)cn(C)c1=O` [II-3, 5-(1-Benzyl-6-morpholin-4-yl-1H-imidazo[4,5-c]pyridin-2-yl)-1,3-dimethyl-1H-pyridin-2-one] returned an IC50 of 0.018 µM.

On to `CCn1cc(-c2nc3cnc(N4CCN(C)CC4)cc3n2Cc2ccccc2)cc(C)c1=O` [II-4], for which the IC50 is 0.055 µM.

`Cc1cc(-c2nc3cnc(N4CCN(C)CC4)cc3n2Cc2ccccc2)nn(C)c1=O` [II-5]: it took 0.012 µM to reach half-maximal inhibition (IC50).

In turn, `CCn1cc(-c2nc3cnc(N4CCOCC4)cc3n2Cc2ccccc2)cc(C)c1=O` [II-6] yielded an IC50 of 0.163 µM.

Take `Cc1cc(-c2nc3cnc(Cl)cc3n2Cc2ccccc2)cn(C)c1=O` [II-7, 5-(1-Benzyl-6-chloro-1H-imidazo[4,5-c]pyridin-2-yl)-1,3-dimethyl-1H-pyridin-2-one]: the IC50 turned out to be 0.175 µM.

Compound `Cc1cc(-c2nc3cnccc3n2Cc2ccccc2)cn(C)c1=O` [II-8] registered an IC50 of 0.148 µM.

Take `Cc1cc(-c2nc3cnc(N(C)C)cc3n2Cc2ccccc2)cn(C)c1=O` [II-9]: the IC50 was 0.03 µM.

For the compound `Cc1nc(-c2nc3cnc(N4CCN(C)CC4)cc3n2Cc2ccccc2)cn(C)c1=O` [II-10], the 50% inhibitory concentration (IC50) is 0.045 µM.

In turn, `COC[C@H](C)n1c(-c2cc(C)c(=O)n(C)c2)nc2cnc(N3CCOC[C@@H]3C)cc21` [II-11] returned an IC50 of 0.102 µM.

Take `Cc1nc(-c2nc3cnc(N4CCOCC4)cc3n2Cc2ccccc2)cn(C)c1=O` [II-12]: inhibition was half-maximal at 0.049 µM (IC50).

`Cc1cc(-c2nc3cnc(-n4ccnc4)cc3n2Cc2ccccc2)cn(C)c1=O` [II-13, 5-(1-Benzyl-6-imidazol-1-yl-1H-imidazo[4,5-c]pyridin-2-yl)-1,3-dimethyl-1H-pyridin-2-one] gave an IC50 of 0.102 µM.

Consider `Cc1cc(-c2nc3cnc(N4CCOCC4)cc3n2Cc2ccncc2)cn(C)c1=O` [II-14], for which the IC50 came to 0.063 µM.

In turn, `Cc1cc(-c2nc3cnc(N4CCOC[C@@H]4C)cc3n2Cc2ccccc2)cn(C)c1=O` [II-15] returned an IC50 of 0.042 µM.

Compound `Cc1cc(-c2nc3cnc(N)cc3n2Cc2ccccc2)cn(C)c1=O` [II-16, 5-(6-Amino-1-benzyl-1H-imidazo[4,5-c]pyridin-2-yl)-1,3-dimethyl-1H-pyridin-2-one] came in with an IC50 of 0.068 µM.

For `Cc1cc(-c2nc3cnc(N4CCOC[C@@H]4C)cc3n2Cc2ccccn2)cn(C)c1=O` [II-17], the IC50 came to 0.16 µM.

Take `Cc1cc(-c2nc3cnc(N4CCOCC4)cc3n2[C@H](C)c2ccccc2)cn(C)c1=O` [II-18]: the 50% inhibitory concentration (IC50) worked out at 0.233 µM.

`Cc1cc(-c2nc3cnc(N4CCOCC4)cc3n2[C@@H](C)c2ccccc2)cn(C)c1=O` [II-19] showed an IC50 of 0.027 µM.

`Cc1cc(-c2nc3cnc(N4CCOCC4)cc3n2Cc2cccnc2)cn(C)c1=O` [II-20]: the IC50 was 0.033 µM.
